Measurements reported in PMC4306142, “Structure of mycobacterial maltokinase, the missing link in the essential GlgE-pathway” (Scientific Reports, 2015).

Columns and labels:
[1] = target: T1, Mak^Mvan (Mycolicibacterium austroafricanum, UniProt A1TH50); test: X-ray crystal structure, […] Å; format: binding; parameters: full length (model Thr2-Gly441), C-terminal linker and His-tag kept, 454 residues in all; pET30a, NdeI/HindIII, E. coli; monomer; conditions: co-crystallised with 4 mM AppCp, two Mg2+; nucleotide site, two conformations
[2] = tested on: Nc1nc2c(ncn2[C@@H]2O[C@H](COP(=O)(O)OP(=O)(O)OP(=O)(O)O)[C@@H](O)[C@H]2O)c(=O)[nH]1; test: purified protein; format: biochemical, Mycolicibacterium austroafricanum; conditions: pH 7.5; 30.0 °C
[3] = target: T1, Mak^Mvan

T1 sequence (A1TH50 whole entry): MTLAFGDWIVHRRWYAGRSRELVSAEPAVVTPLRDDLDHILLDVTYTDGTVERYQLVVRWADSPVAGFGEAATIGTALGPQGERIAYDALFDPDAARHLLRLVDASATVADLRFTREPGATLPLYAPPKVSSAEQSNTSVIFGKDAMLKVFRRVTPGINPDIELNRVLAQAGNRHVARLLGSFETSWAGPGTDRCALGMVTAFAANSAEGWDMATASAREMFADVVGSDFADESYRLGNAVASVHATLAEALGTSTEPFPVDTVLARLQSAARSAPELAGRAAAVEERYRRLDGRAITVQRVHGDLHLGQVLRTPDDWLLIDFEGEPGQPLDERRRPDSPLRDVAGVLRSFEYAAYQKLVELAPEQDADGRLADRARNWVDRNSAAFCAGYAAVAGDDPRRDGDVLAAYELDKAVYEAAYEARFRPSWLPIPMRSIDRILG

## Nc1ncnc2c1ncn2[C@@H]1O[C@H](COP(=O)(O)OP(=O)(O)CP(=O)(O)O)[C@@H](O)[C@H]1O [AppCp, adenosine-5′-[(β,γ)-methyleno] triphosphate]
[1]
  X-ray crystal structure, 1.15 Å: structure of Mak^Mvan in complex with the non-hydrolysable ATP analog

## (Mycolicibacterium vanbaalenii PYR-1)
[2]
  Km: 5.8 ± 1.4 mM

## Nc1ncnc2c1ncn2[C@@H]1O[C@H](COP(=O)(O)OP(=O)(O)OP(=O)(O)O)[C@@H](O)[C@H]1O [ATP]
[3]
  X-ray crystal structure, 1.71 Å: 4WZY (Mak^Mvan:ATP complex)
